Assay [1] concerns the target T1, c-Met (cytoplasmic domain) (Homo sapiens, UniProt P08581).
T1 construct: 10 ng/mL c-Met (cytoplasmic domain, Invitrogen Corporation #PV3143); purchased Invitrogen Corporation PV3143
Briefly: c-Met Kinase Assay (same methods as for ALK, with modifications). As to conditions: 1 μM ATP (Km level), 10 ng/mL c-Met; read-out: cMet Activity (c-Met kinase inhibition, IC50 class). In kind it is biochemical. The method in brief:
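Plates were coated with phospholipase C-γ substrate (10 μg/mL) in TBS, and the reaction was started with 10 ng/mL c-Met cytoplasmic domain and run 15 min at 37 °C. Phosphoproduct was detected with Eu-N1-labelled PT66 antibody. IC50 came from a variable-slope sigmoidal fit of percent inhibition vs log concentration.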

Assay [2] addresses T2, baculovirus-expressed ALK (Homo sapiens, UniProt Q9UM73).
T2 construct: host or cells: baculovirus expression system
Description: ALK Kinase Assay (ELISA-type, time-resolved fluorescence). It is filed as biochemical. As to conditions: 1 μM ATP (Km level), 30 ng/ml ALK, 37° C., 15 minutes; read-out: ALK Activity (ALK kinase inhibition, IC50 class). An outline of the steps:
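Plates coated with phospholipase C-γ substrate (10 μg/mL in TBS); reaction started with 30 ng/ml ALK and run 15 min at 37° C. Phosphorylated substrate detected with Eu-N1-labeled PT66 antibody. IC50 from sigmoidal variable-slope fit of percent inhibition vs log concentration.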
For orientation: ELISA stands for enzyme-linked immunosorbent assay.

A value given as a limit tells only on which side of the number the result lay.

One may read the IC50 as the concentration that gives 50% inhibition.

T2 sequence (Q9UM73 19-1620): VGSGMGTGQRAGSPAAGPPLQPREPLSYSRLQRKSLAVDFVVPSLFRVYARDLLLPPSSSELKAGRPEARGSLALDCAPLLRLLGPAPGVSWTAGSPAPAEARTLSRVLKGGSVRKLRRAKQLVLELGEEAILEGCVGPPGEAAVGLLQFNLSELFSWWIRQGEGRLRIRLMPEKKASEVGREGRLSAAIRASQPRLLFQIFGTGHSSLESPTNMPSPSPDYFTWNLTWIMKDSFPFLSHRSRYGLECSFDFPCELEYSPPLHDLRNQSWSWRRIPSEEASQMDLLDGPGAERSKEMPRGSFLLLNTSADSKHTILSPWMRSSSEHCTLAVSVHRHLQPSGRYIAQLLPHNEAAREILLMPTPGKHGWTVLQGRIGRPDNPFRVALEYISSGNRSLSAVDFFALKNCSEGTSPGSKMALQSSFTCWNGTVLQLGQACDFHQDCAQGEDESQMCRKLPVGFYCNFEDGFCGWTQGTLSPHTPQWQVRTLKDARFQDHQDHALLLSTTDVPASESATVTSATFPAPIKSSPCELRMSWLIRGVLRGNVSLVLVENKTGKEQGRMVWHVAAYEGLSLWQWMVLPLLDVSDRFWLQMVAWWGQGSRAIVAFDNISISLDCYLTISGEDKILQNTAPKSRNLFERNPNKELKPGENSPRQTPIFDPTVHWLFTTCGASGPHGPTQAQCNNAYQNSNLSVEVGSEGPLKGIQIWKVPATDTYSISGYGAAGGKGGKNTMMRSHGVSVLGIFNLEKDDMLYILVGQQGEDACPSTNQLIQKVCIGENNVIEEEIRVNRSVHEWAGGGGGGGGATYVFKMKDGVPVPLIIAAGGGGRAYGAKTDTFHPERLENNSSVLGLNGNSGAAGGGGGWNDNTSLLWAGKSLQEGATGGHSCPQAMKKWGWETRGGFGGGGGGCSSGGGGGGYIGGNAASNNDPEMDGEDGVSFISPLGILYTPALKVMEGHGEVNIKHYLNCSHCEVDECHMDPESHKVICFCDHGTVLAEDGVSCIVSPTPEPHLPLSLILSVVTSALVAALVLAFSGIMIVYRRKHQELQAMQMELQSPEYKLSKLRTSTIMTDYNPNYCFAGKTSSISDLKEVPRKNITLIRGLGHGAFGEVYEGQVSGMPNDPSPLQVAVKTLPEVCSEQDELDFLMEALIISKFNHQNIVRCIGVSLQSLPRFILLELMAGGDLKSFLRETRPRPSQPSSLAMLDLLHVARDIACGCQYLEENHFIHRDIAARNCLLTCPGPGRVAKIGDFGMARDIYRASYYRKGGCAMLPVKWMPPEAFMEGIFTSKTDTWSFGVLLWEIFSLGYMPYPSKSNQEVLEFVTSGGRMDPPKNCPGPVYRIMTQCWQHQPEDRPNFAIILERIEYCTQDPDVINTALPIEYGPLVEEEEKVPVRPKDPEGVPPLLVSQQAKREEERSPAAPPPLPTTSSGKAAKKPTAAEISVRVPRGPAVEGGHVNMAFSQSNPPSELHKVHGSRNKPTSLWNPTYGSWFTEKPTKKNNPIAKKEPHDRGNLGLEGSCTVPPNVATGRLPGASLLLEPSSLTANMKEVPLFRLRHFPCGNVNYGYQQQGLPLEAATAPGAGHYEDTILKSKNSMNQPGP
T1 sequence (P08581 956-1390 limits assumed): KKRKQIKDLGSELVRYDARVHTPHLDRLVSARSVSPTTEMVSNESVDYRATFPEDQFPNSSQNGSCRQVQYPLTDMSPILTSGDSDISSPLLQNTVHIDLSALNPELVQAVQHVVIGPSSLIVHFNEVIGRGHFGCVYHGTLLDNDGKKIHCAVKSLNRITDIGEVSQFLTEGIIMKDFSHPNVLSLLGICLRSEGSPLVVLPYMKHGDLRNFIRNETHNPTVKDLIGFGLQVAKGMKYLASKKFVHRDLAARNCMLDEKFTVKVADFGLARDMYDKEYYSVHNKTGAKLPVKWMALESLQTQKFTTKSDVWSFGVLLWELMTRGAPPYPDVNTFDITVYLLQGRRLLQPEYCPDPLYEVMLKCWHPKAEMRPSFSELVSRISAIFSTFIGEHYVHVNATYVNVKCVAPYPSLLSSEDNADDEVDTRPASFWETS

Turning to `COCCOC(=O)c1ccccc1Nc1nc(Nc2cc3c(cc2OC)CCC(NCCO)CC3)ncc1Cl` (centres unmarked) [Example 1093, 2-{5-Chloro-2-[7-(2-hydroxy-ethylamino)-3-methoxy-6,7,8,9-tetrahydro-5H-benzocyclohepten-2-ylamino]-pyrimidin-4-ylamino}-benzoic acid 2-methoxy-ethyl ester], the IC50 in assay [1] was greater than 10000 nM; in assay [2], less than 100 nM.
Taken in the same sequence, the figures for `COc1cc2c(cc1Nc1ncc(Cl)c(Nc3ccccc3S(=O)(=O)N3CCC(O)C3)n1)CCC(N1CCN(C)CC1)CC2` (centres unmarked) [Example 1098, 1-(2-{5-Chloro-2-[3-methoxy-7-(4-methyl-piperazin-1-yl)-6,7,8,9-tetrahydro-5H-benzocyclohepten-2-ylamino]-pyrimidin-4-ylamino}-benzenesulfonyl)-pyrrolidin-3-ol] were 1000 to 10000 nM and less than 100 nM.
Taken in the same sequence, the figures for `COc1cc2c(cc1Nc1ncc(Cl)c(Nc3ccccc3S(=O)(=O)N(C)C)n1)CCC(N1CCN(C)CC1)CC2` (centres unmarked) [Example 1099, 2-{5-Chloro-2-[3-methoxy-7-(4-methyl-piperazin-1-yl)-6,7,8,9-tetrahydro-5H-benzocyclohepten-2-ylamino]-pyrimidin-4-ylamino}-N,N-dimethyl-benzenesulfonamide] were 1000 to 10000 nM and less than 100 nM.
Taken in the same sequence, the figures for `COc1cc2c(cc1Nc1ncc(Cl)c(Nc3ccccc3S(=O)(=O)C(C)C)n1)CCC(N1CCN(C)CC1)CC2` (centres unmarked) [Example 1100, 5-Chloro-N*2*-[3-methoxy-7-(4-methyl-piperazin-1-yl)-6,7,8,9-tetrahydro-5H-benzocyclohepten-2-yl]-N*4*-[2-(propane-2-sulfonyl)-phenyl]-pyrimidine-2,4-diamine] were 1000 to 10000 nM and less than 100 nM.
Consider `COc1cc2c(cc1Nc1ncc(Cl)c(Nc3ccccc3C(=O)OC(C)C)n1)CCN(CCCN(C)C)C(=O)C2` [Example 1111, 2-{5-Chloro-2-[3-(3-dimethylamino-propyl)-8-methoxy-2-oxo-2,3,4,5-tetrahydro-1H-benzo[d]azepin-7-ylamino]-pyrimidin-4-ylamino}-benzoic acid isopropyl ester], for which the IC50 in assay [1] was greater than 10000 nM; in assay [2] it was less than 100 nM.
For `CNC(=O)CN1CCc2cc(Nc3ncc(Cl)c(N[C@@H]4CCCC[C@H]4NS(C)(=O)=O)n3)c(OC)cc2CC1` [Example 1112, 2-{7-[5-Chloro-4-((1R,2R)-2-methanesulfonylamino-cyclohexylamino)-pyrimidin-2-ylamino]-8-methoxy-1,2,4,5-tetrahydro-benzo[d]azepin-3-yl}-N-methyl-acetamide], the IC50 in assay [1] is greater than 10000 nM; in assay [2], less than 100 nM.
With `CNC(=O)CN1CCc2cc(Nc3ncc(Cl)c(Nc4ccccc4C(=O)NC)n3)c(OC)cc2CC1` [Example 1114, 2-[5-Chloro-2-(8-methoxy-3-methylcarbamoylmethyl-2,3,4,5-tetrahydro-1H-benzo[d]azepin-7-ylamino)-pyrimidin-4-ylamino]-N-methyl-benzamide], the IC50 in assay [1] is 1000 to 10000 nM; in assay [2], less than 100 nM.
Take `CCNC(=O)c1ccccc1Nc1nc(Nc2cc3c(cc2OC)CCN(CC(=O)NC)CC3)ncc1Cl` [Example 1115, 2-[5-Chloro-2-(8-methoxy-3-methylcarbamoylmethyl-2,3,4,5-tetrahydro-1H-benzo[d]azepin-7-ylamino)-pyrimidin-4-ylamino]-N-ethyl-benzamide]: the half-inhibitory concentration (IC50) was 1000 to 10000 nM in assay [1] and less than 100 nM in assay [2].
Taken in the same sequence, the figures for `CNC(=O)CN1CCc2cc(Nc3ncc(Cl)c(Nc4c(F)cccc4C(=O)NC)n3)c(OC)cc2CC1` [Example 1116, 2-[5-Chloro-2-(8-methoxy-3-methylcarbamoylmethyl-2,3,4,5-tetrahydro-1H-benzo[d]azepin-7-ylamino)-pyrimidin-4-ylamino]-3-fluoro-N-methyl-benzamide] were 1000 to 10000 nM and less than 100 nM.
`CNC(=O)CN1CCc2cc(Nc3ncc(Cl)c(NC4C5C=CC(C5)C4C(N)=O)n3)c(OC)cc2CC1` (stereo not drawn) [Example 1117, (2-exo,3-exo)-3-[5-Chloro-2-(8-methoxy-3-methylcarbamoylmethyl-2,3,4,5-tetrahydro-1H-benzo[d]azepin-7-ylamino)-pyrimidin-4-ylamino]-bicyclo[2.2.1]hept-5-ene-2-carboxylic acid amide]: the IC50 was greater than 10000 nM in assay [1] and less than 100 nM in assay [2].
As for `CNC(=O)CN1CCc2cc(Nc3ncc(Cl)c(Nc4cc(Cl)ccc4OC)n3)c(OC)cc2CC1` [Example 1118, 2-{7-[5-Chloro-4-(5-chloro-2-methoxy-phenylamino)-pyrimidin-2-ylamino]-8-methoxy-1,2,4,5-tetrahydro-benzo[d]azepin-3-yl}-N-methyl-acetamide], the IC50 in assay [1] was greater than 10000 nM; in assay [2], less than 100 nM.
Taken in the same sequence, the figures for `CCNC(=O)c1cccc(F)c1Nc1nc(Nc2cc3c(cc2OC)CCN(CC(=O)N(C)C)CC3)ncc1Cl` [Example 1119, 2-[5-Chloro-2-(3-dimethylcarbamoylmethyl-8-methoxy-2,3,4,5-tetrahydro-1H-benzo[d]azepin-7-ylamino)-pyrimidin-4-ylamino]-N-ethyl-3-fluoro-benzamide] were 1000 to 10000 nM and less than 100 nM.
Taken in the same sequence, the figures for `COc1cc2c(cc1Nc1ncc(Cl)c(Nc3ccc(N4CCOCC4)cc3OC)n1)CCN(C(=O)CN(C)C)CC2` [Example 1121, 1-{7-[5-Chloro-4-(2-methoxy-4-morpholin-4-yl-phenylamino)-pyrimidin-2-ylamino]-8-methoxy-1,2,4,5-tetrahydro-benzo[d]azepin-3-yl}-2-dimethylamino-ethanone] were greater than 10000 nM and less than 100 nM.
As for `COc1cc2c(cc1Nc1ncc(Cl)c(N[C@@H]3CCCC[C@H]3NS(C)(=O)=O)n1)CCN(CCS(C)(=O)=O)CC2` [Example 1122, N-((1R,2R)-2-{5-Chloro-2-[3-(2-methanesulfonyl-ethyl)-8-methoxy-2,3,4,5-tetrahydro-1H-benzo[d]azepin-7-ylamino]-pyrimidin-4-ylamino}-cyclohexyl)-methanesulfonamide], the IC50 was greater than 10000 nM in assay [1] and less than 100 nM in assay [2].
Regarding `COc1cc2c(cc1Nc1ncc(Cl)c(N[C@H]3[C@@H](C(N)=O)[C@@H]4C=C[C@H]3C4)n1)CCN(CC(=O)N(C)C)CC2` [Example 1123, (1S,2S,3R,4R)-3-[5-Chloro-2-(3-dimethylcarbamoylmethyl-8-methoxy-2,3,4,5-tetrahydro-1H-benzo[d]azepin-7-ylamino)-pyrimidin-4-ylamino]-bicyclo[2.2.1]hept-5-ene-2-carboxylic acid amide], the IC50 is greater than 10000 nM in assay [1] and less than 100 nM in assay [2].
Turning to `CNC(=O)CN1CCc2cc(Nc3ncc(Cl)c(N[C@H]4[C@@H](C(N)=O)[C@@H]5C=C[C@H]4C5)n3)c(OC)cc2CC1` [Example 1124, (1S,2S,3R,4R)-3-[5-Chloro-2-(8-methoxy-3-methylcarbamoylmethyl-2,3,4,5-tetrahydro-1H-benzo[d]azepin-7-ylamino)-pyrimidin-4-ylamino]-bicyclo[2.2.1]hept-5-ene-2-carboxylic acid amide], the IC50 was greater than 10000 nM in assay [1] and less than 100 nM in assay [2].

Source of the values: patent US8148391B2 (Cephalon, Inc., priority 2006, dated 2012).
